The source of these data is PMC8509676, “Residual Helicity at the Active Site of the Histidine Phosphocarrier, HPr, Modulates Binding Affinity to Its Natural Partners” (International Journal of Molecular Sciences, 2021).

Where two headings read alike, the source gives them in different places.

In one data set the target is T1, Rsd^ec (Escherichia coli, UniProt P0AFX4).
T1 construct: His-tag; made in house; host or cells: E. coli C41
In words: Isothermal titration calorimetry (ITC), peptide/Rsd^ec binding. Conditions: ITC, 25 °C; for ΔH, Rsd^ec: 50 mM Tris pH 7.0. The protocol: The experimental set-up and data processing of ITC experiments has been described previously. Rsd^ec or EIN^sc (at 10–20 µM) were injected into the cell, and the peptides in the syringe (100–200 µM) in 50 mM of Tris buffer, pH 7.0. The temperature for all the experiments was 25 °C. Typically, each calorimetric titration consisted of performing 19 injections with 2 μL volume, with a time spacing of 150 s, while stirring at 750 rpm in an Auto-iTC200 high-sensitivity microcalorimeter (MicroCal, Malvern-Panalytical, Malvern, UK). The results were analysed by applying a model that considered a single binding site (assuming a 1:1 stoichiometry) for the peptide/EIN^sc or peptide/Rsd^ec interaction using a nonlinear least-squares regression analysis in Origin 7.0 (OriginLab, Northampton, MA, USA) with user-defined fitting routines.
In general terms: ITC needs no label: the signal is the heat of the interaction.

The subject of data set [1] is Staphylococcus aureus CECT59. The class given is cell-based. The protocol: The CECT59 strain of the Gram-positive bacteria Staphylococcus aureus from the Spanish Type Culture Collection (Colección Española de Cultivos Tipo, CECT, Universitat de Valencia, Spain) was used for determining its sensitivity to the HPr peptides studied in this work. The MIC for each peptide was determined by the two-fold broth microdilution method according to the Clinical and Laboratory Standards Institute (CLSI) guidelines, with some modifications as previously described. For this testing procedure, a bacteria colony previously grown in MH agar plates was isolated and incubated in MH broth at 37 °C overnight to prepare the bacteria inoculum to be used in each assay. Then, the bacteria suspensions were adjusted to a 100× dilution of an 0.5 McFarland turbidity standard in MH broth and incubated with different concentrations of each peptide in round-bottom 96-well polystyrene plates (Deltalab S.L., Rubí, Spain) (50 μL/well) for 24 h at 37 °C. The peptide concentrations employed comprised two-fold dilutions starting at either 120, 160, or 400 µM, depending on the experiment. […] All assays were performed in triplicate.

Data set [2] in a line: TFE titration followed by far-UV CD (disordered-helical two-state equilibrium). The format is physicochemical. Conditions: for [TFE]1/2 / m: TFE titration by far-UV CD, 20 µM peptide, two-state fit, fitting errors; for percentage of helical population (in parentheses): from ∆G^water assuming a two-state conformational equilibrium; for ∆G^water: product of m- and [TFE]1/2 values, error propagation. The protocol:
For experiments in the presence of TFE, the same set of experimental parameters was used. Cosolvent concentrations were indicated in percentage of volume (%). […] The peptide concentration for these experiments was 20 µM.

The nature of data set [3]: Translational diffusion NMR (DOSY). Conditions: for D (translational diffusion coefficient): DOSY, 10 °C, 100% D2O, 70-120 µM peptide, fitting errors, repeated twice; for Rh (in parentheses, from DOSY): from comparison with the Rh of dioxane (2.12 Å). The format is physicochemical. On the procedure: (b) Translational diffusion NMR (DOSY): Peptide concentrations were the same as those used in the 1D-^1H-NMR spectra. Translational self-diffusion measurements were performed with the pulsed-gradient spin-echo sequence in the presence of 100% D2O. The following relationship existed between the translational self-diffusion coefficient, D, and the delays used during experiment acquisition:(2) I/I0=−exp(DγH2δ^2G^2(Δ−δ/3−τ/2)) where I is the peak intensity of a particular resonance (or a group of them) at any gradient strength; I0 is the maximum peak intensity of the same resonance(s) at the smallest gradient strength (that is, at 2% of the total power of the gradient coil); D is the translational self-diffusion constant (in cm^2 s^−1); δ is the duration (in s) of the gradient; G is the gradient strength (in T cm^−1); ∆ is the time (in s) between the gradients; γH is the gyromagnetic constant of the proton (in rad s^−1 T^−1); and τ is the recovery delay between the bipolar gradients (100 µs in our experiments). The gradient strength (G) was varied in 16 lineal steps, between 2 and 95% of the total power of the gradient coil of the probe. The gradient strength was calibrated by using the value of D for the residual proton water line in a sample containing 100% D2O placed in a 5 mm tube [42]. Data were plotted as I/I0 versus G^2, and the exponential factor of the curve was:(3) DγH2δ^2(Δ−δ/3−τ/2) from which D can be obtained. The duration of the gradient (δ) was 2.25 ms, and the time between the two gradients (∆) was set to 200 ms. The signal from the methyl groups between 1.1 and 0.70 ppm were used for integration of the intensity. A final concentration of 1% of dioxane was added to each peptide; the hydrodynamic radius, Rh, of each peptide was obtained for comparison by assuming that the Rh of dioxane was 2.12 Å [42]. The DOSY experiment was repeated twice with fresh samples for each peptide.

A short description of data set [4]: Far-UV CD, helicity from molar ellipticity at 222 nm. The format is physicochemical. To be noted: 5 °C; for [Θ]^222 (value in parentheses): 50 mM Tris pH 7.0; for Helicity (%): 50 mM Tris pH 7.0, from [Θ]^222 assuming −39,500 deg cm^2 dmol^−1 for a fully formed α-helix. On the procedure:
Spectra were collected on a Jasco J810 spectropolarimeter (Jasco, Tokyo, Japan) interfaced with a Peltier unit. Far-UV measurements were performed with samples placed in quartz cells with a 0.1 cm path length (Hellma, Kruibeke, Belgium), with a response time of 2 s, a band width of 1 nm, and a scan velocity of 50 nm/min. For all peptides, a wide range of concentrations (10–50 µM) was used to determine whether either the shape or the intensity of the spectra was concentration-dependent. None of those features changed in the concentration range explored. The experiments in aqueous solution were acquired at 5 °C in Tris buffer (50 mM, pH 7.0). Raw ellipticity was converted to molar ellipticity, [Θ], from which the fraction of helical populations was determined as previously described. For the experiments in the presence of each protein (repeated three times), the same concentration used in the fluorescence experiments was used, and the experimental set-up was the same as described above for the isolated peptides.

For data set [5], the target named is T2, N-terminal domain of EI from Streptomyces coelicolor (EIN^sc) (Streptomyces coelicolor).
T2 chain: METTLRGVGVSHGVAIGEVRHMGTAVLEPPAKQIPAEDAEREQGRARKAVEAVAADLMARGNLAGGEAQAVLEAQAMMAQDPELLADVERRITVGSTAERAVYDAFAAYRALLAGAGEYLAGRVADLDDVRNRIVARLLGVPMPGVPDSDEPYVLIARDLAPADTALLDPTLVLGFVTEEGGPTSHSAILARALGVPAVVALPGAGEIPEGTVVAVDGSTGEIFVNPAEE
In words: ITC; Rsd^ec or EIN^sc (10–20 µM) in the cell, peptide (100–200 µM) in the syringe; 50 mM Tris, pH 7.0, 25 °C; single binding-site model, 1:1 stoichiometry assumed. To be noted: both partners purified.

The target of data set [6] is T3, Regulator of sigma D from Escherichia coli (Rsd^ec) (E. coli, UniProt P0AFX4 1-158).
T3 construct: Rsd (regulator of sigma D), anti-sigma factor of sigma 70, E. coli; 158-residue-long protein; called 'intact Rsd' in the abstract and 'wild-type Rsd vector' in the methods; Vector was a gift from Ann Hochschild; source: E. coli C41, purified as described [24,50]
T3 sequence (looked up): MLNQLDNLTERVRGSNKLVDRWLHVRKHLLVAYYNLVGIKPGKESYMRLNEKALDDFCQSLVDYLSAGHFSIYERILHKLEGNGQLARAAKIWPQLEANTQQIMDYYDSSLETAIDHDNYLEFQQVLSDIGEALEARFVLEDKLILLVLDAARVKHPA
The data set is described as above. Conditions: both partners purified.

Data set [7] has as its target T2, N-terminal domain of EI from …. The experiment in a line: other fluorescence titration; peptide 0–30 µM added to 3 µM Rsd^ec or EIN^sc; 50 mM Tris, pH 7.0, 25 °C; samples left overnight at 5 °C; blank of peptide subtracted. To be noted: both partners purified.
The mark [8] stands for this setting: S. aureus CECT59, two-fold broth microdilution (CLSI), MH broth, 24 h, 37 °C, triplicate (sd = 0), highest concentration tested 400 µM.

As to “Ac-GWAEGLHARPASIAVRAATATG-NH2 [Peptide F22A]”, on Rsd^ec, the “ΔH, Rsd^ec” value is listed as 1.1 ± 0.5 kcal/mol. In data set [1] (setting [8]), this molecule yielded an MIC of 400 µM. Besides, in data set [2], the “[TFE]1/2” value was 22 ± 1 % (v/v), the m is 134 ± 27 cal/mol (% (v/v)), the “percentage of helical population (in parentheses)” value (shortened to “percentage of helical population”) turned out to be 0.5% and the “∆G^water” value was 2.9 ± 0.6 kcal/mol. In data set [3], the “D (translational diffusion coefficient)” value is recorded as 1.83 ± 0.03 cm^2 s^−1 × 10^6 and the “Rh (in parentheses, from DOSY)” value is 11 ± 1 Å. For the same molecule, in data set [4], the “[Θ]^222 (value in parentheses)” value is −84.95 deg cm^2 dmol^−1 and the “Helicity (%)” value is listed as 0.2%.
As for “Ac-GWAEGLHARAASAFARAATATG-NH2 [P18A/I21A/V23A]”, the “ΔH, Rsd^ec” value on Rsd^ec is listed as 0.6 ± 0.4 kcal/mol. For the same molecule, on Rsd^ec (50 mM Tris pH 7.0, single binding-site model, read-out: Kd, Rsd^ec (ITC)), the Kd was determined as 2600 ± 400 nM. The same molecule yielded a minimum inhibitory concentration (MIC) in data set [1] (CECT59, 24 h) of 60 µM. In data set [2], the “[TFE]1/2” value is given as 19.0 ± 0.9 % (v/v), the m is recorded as 184 ± 32 cal/mol (% (v/v)), the “percentage of helical population” value is 0.17% and the “∆G^water” value is recorded as 3.5 ± 0.6 kcal/mol. In data set [3], the “D (translational diffusion coefficient)” value is on record as 2.5 ± 0.4 cm^2 s^−1 × 10^6 and the “Rh (in parentheses, from DOSY)” value is on record as 9 ± 2 Å. For the same molecule, in data set [4], the “[Θ]^222 (value in parentheses)” value is given as −2698.61 deg cm^2 dmol^−1 and the “Helicity (%)” value came to 6.8%.
For “Ac-GWAEGLHARAASIFVRAATATG-NH2 [Peptide P18A]”, the “ΔH, Rsd^ec” value on Rsd^ec is given as 1.1 ± 0.4 kcal/mol. Also, the MIC in data set [1] (setting [8]) came to 120 µM. In addition, in data set [2], the “[TFE]1/2” value is listed as 19.8 ± 0.4 % (v/v), the m was 181 ± 17 cal/mol (% (v/v)), the “percentage of helical population” value is given as 0.15% and the “∆G^water” value is on record as 3.6 ± 0.3 kcal/mol. Also, in data set [3], the “D (translational diffusion coefficient)” value came out at 2.0 ± 0.1 cm^2 s^−1 × 10^6 and the “Rh (in parentheses, from DOSY)” value came out at 11 ± 1 Å. In data set [4], the “[Θ]^222 (value in parentheses)” value is −1135.47 deg cm^2 dmol^−1 and the “Helicity (%)” value is recorded as 2.9%.

B1: HPr^9–30 wild-type peptide (residues 9-30 of HPr from Streptomyces coelicolor) (peptide)
peptide: Ac-GWAEGLHARPASIFVRAATATG-NH2
notes: HPr (histidine phosphocarrier) of Streptomyces coelicolor, HPr^sc, residues 9-30; first letter printed as G^9; The limit residues are printed as Gly9-Ala30 (abstract) and Ala9-Gly30 (introduction); source: synthetic peptide, bought: NZYTech (purity >95%)
As for B1, the Kd in data set [5] came to 2300 ± 400 nM; in data set [6], 1400 ± 300 nM; in data set [7], 10000 nM. The dH was -0.8 ± 0.4 kcal/mol in data set [5] and 1.3 ± 0.4 kcal/mol in data set [6].

B2: HPr^9–30 V23A peptide (peptide)
peptide: Ac-GWAEGLHARPASIFARAATATG-NH2
notes: HPr of Streptomyces coelicolor, residues 9-30, with V23A; source: synthetic peptide, bought: NZYTech (purity >95%)
In the case of B2, the results for the Kd in data set [5], in data set [6] and in data set [7] were 9100 ± 900 nM, 8300 ± 900 nM and 9000 nM, respectively. Also, the dH in data set [5] was -6.6 ± 0.5 kcal/mol; in data set [6], -0.8 ± 0.5 kcal/mol.

B3: HPr^9–30 P18A/I21A/V23A peptide (peptide)
peptide: Ac-GWAEGLHARAASAFARAATATG-NH2
notes: HPr of Streptomyces coelicolor, residues 9-30, with P18A, I21A and V23A; also called triple-mutant; source: synthetic peptide, bought: NZYTech (purity >95%)
Turning to B3, in data set [6], the affinity, expressed as Kd, was 2600 ± 400 nM and the dH stood at 0.6 ± 0.4 kcal/mol.

B4: HPr^9–30 I21A peptide (peptide)
peptide: Ac-GWAEGLHARPASAFVRAATATG-NH2
notes: HPr of Streptomyces coelicolor, residues 9-30, with I21A; source: synthetic peptide, bought: NZYTech (purity >95%)
B4: the dH in data set [6] was found to be 1 ± 0.4 kcal/mol.

B5: HPr^9–30 P18A peptide (peptide)
peptide: Ac-GWAEGLHARAASIFVRAATATG-NH2
notes: HPr of Streptomyces coelicolor, residues 9-30, with P18A; source: synthetic peptide, bought: NZYTech (purity >95%)
In the case of B5, in data set [6], the Kd was 2200 ± 400 nM and the dH worked out at 1.1 ± 0.4 kcal/mol.

B6: HPr^9–30 P18A/I21A/F22A/V23A peptide (peptide)
peptide: Ac-GWAEGLHARAASAAARAATATG-NH2
notes: HPr of Streptomyces coelicolor, residues 9-30, with P18A, I21A, F22A and V23A; also called quadruple-mutant; source: synthetic peptide, bought: NZYTech (purity >95%)
As to B6, the Kd in data set [5] was 1100 ± 200 nM; in data set [7], 11000 nM. Further, the dH was determined as 0.2 ± 0.4 kcal/mol in data set [5] and 4.3 ± 0.5 kcal/mol in data set [6].

The MIC is the least concentration at which growth counts as inhibited. Low readings indicate inhibition by little substance, high ones a need for much substance. A word on the Kd: it is the constant that tells how readily two partners part at equilibrium.
